EC50 data for four molecules are collected here from patent US7718686B2, “Imidazole variants as modulators of GABA receptor for the treatment of GI disorders” (AstraZeneca AB, priority 2004, dated 2010).

The assay addresses T1, GABAB receptor (Homo sapiens, UniProt O75899+Q9UBS5).
T1 construct: expressed in transfected cells; host or cells: CHO-K1 (membranes)
Briefly: [35S]-GTPγS binding assay with GABA in the presence or absence of PAM. In kind it is biochemical. The conditions noted are these: log EC50 for GABA plotted against log concentration of the positive allosteric modulator; read-out: EC50 (potency of the positive allosteric modulator). The protocol:
[^35S]-GTPγS binding assays were performed at 30° C. for 45 min in membrane buffer (100 mM NaCl, 5 mM MgCl2, 1 mM EDTA, 50 mM HEPES, pH 7.4) containing 0.025 μg/μl of membrane protein (prepared from the cell lines described above) with 0.01% bovine serum albumin (fatty acid free), 10 μM GDP, 100 μM DTT and 0.53 nM [^35S]-GTPγS (Amersham-Pharmacia Biotech) in a final volume of 200 μl. Non-specific binding was determined in the presence of 20 μM GTPγS. The reaction was started by the addition of GABA at concentration between 1 mM and 0.1 mM in the presence or absence of the required concentration of PAM. The reaction was terminated by addition of ice-cold wash buffer (50 mM Tris-HCl, 5 mM MgCl2, 50 mM NaCl, pH 7.4) followed by rapid filtration under vacuum through Printed Filtermat A glass fiber filters (Wallac) (0.05% PEI treated) using a Micro 96 Harvester (Skatron Instruments). The filters were dried for 30 min at 50° C., then a paraffin scintillant pad was melted onto the filters and the bound radioactivity was determined using a 1450 Microbeta Trilux (Wallac) scintillation counter.
GABA dose-response curves in the presence and absence of test compounds were constructed using the 4-parameter logistic equation, y=ymax+((ymin−ymax)/1+(x/C)^D) where C=EC50 and D=slope factor.
The potency of PAM in GTPγS assays was determined by plotting the log EC50 for GABA against the log concentration of the positive allosteric modulator in the presence of which the measurement was performed.
(GTPγS resists hydrolysis and so accumulates on activated G proteins.)

T1 sequence (Q9UBS5 15-961 limits assumed): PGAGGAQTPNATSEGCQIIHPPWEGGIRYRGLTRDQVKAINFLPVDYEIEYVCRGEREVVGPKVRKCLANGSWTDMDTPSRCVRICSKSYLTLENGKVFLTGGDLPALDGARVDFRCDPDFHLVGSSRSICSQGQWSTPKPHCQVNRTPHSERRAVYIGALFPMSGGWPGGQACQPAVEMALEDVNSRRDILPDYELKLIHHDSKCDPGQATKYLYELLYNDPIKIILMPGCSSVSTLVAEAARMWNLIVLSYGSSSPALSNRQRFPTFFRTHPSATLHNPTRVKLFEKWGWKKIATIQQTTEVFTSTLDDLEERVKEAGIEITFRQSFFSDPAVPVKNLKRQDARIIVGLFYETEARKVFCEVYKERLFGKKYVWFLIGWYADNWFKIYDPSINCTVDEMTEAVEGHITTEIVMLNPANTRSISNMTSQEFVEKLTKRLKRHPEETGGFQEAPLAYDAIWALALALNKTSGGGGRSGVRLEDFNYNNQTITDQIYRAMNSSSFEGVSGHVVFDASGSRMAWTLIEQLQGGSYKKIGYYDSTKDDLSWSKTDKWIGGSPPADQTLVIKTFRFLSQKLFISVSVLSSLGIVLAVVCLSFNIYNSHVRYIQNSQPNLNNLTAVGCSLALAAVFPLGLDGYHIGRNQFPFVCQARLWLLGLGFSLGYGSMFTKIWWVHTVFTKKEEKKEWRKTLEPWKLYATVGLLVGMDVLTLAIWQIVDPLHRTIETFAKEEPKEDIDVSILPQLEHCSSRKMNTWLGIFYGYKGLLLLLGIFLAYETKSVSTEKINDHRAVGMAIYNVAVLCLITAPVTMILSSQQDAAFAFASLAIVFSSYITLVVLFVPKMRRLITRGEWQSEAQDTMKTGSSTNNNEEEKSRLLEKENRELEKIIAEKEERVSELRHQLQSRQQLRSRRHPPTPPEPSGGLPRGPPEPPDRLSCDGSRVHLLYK
T1 sequence (O75899 42-941): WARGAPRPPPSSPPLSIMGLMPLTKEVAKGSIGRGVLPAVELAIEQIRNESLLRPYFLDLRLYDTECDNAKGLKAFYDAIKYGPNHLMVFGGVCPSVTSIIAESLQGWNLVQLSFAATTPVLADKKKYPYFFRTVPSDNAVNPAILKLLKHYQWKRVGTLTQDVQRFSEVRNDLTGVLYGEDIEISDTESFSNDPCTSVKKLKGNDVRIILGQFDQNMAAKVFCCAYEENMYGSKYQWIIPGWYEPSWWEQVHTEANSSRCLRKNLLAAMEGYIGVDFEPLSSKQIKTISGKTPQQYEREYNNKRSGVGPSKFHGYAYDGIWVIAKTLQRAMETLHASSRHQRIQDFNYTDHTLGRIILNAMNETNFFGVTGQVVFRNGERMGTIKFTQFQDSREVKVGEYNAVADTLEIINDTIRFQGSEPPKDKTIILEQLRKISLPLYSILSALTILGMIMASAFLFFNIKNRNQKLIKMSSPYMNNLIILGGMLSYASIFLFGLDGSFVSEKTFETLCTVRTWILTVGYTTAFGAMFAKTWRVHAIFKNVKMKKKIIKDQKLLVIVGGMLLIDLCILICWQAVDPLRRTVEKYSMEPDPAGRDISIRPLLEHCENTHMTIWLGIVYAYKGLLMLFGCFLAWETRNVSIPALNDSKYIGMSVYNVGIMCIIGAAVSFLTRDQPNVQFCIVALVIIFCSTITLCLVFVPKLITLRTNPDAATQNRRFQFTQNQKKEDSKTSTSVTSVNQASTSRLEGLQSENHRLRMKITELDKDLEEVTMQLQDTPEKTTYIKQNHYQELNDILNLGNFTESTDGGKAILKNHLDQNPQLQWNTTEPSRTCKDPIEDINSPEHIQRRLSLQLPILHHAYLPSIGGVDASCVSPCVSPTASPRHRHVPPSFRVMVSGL

One may read the EC50 as the midpoint of the concentration-response curve. `CCCCC(C)(C)OC(=O)c1c(NC(=O)c2ccc(Cl)cc2)nc(SC)n1-c1ccccc1` [1,1-dimethylpentyl 4-[(4-chlorobenzoyl)amino]-2-(methylthio)-1-phenyl-1H-imidazole-5-carboxylate]: the concentration giving a half-maximal response (EC50) stood at 300 nM.
With `CCOC(=O)c1c(NC(=O)c2ccc(Cl)c(Cl)c2)nc(SC)n1Cc1ccccc1` [1H-imidazole-5-carboxylic acid, 4-[(3,4-dichlorobenzoyl)amino]-2-(methylthio)-1-(phenylmethyl)-, ethyl ester], the EC50 worked out at 2300 nM.
Take `COCC(C)(C)OC(=O)c1c(NC(=O)C2COc3ccccc3O2)nc(OC)n1-c1ccccc1` (stereo not shown) [2-methoxy-1,1-dimethylethyl 4-[(2,3-dihydro-1,4-benzodioxin-2-ylcarbonyl)amino]-2-methoxy-1-phenyl-1H-imidazole-5-carboxylate]: the EC50 was found to be 300 nM.
As for `CCOC(=O)c1c(NC(=O)C(CC)c2ccccc2)nc(SC)n1-c1ccccc1` (stereo not shown) [1H-imidazole-5-carboxylic acid, 2-(methylthio)-4-[(1-oxo-2-phenylbutyl)amino]-1-phenyl-, ethyl ester], the figure is 600 nM.
